Source: ChEMBL document CHEMBL1201862, “PubChem BioAssay data set” (2004)
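Tested at 5 concentrations; 48 h exposure; 96-well plates; endpoints linearly interpolated, else capped at highest concentration. GI50 marks 50% less growth.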 Active and inactive are the calls of the source. No stated cut-off is given here; in the data, active = GI50 up to about 1.1 µM and inactive = higher.

Experiments:
Test in all cases: NCI-60 cell line screen, 48 h
ACHN = system: ACHN
LOX IMVI = system: LOX IMVI
OVCAR-8 = system: OVCAR-8
UO-31 = system: UO-31
SK-MEL-28 = system: SK-MEL-28
HCC 2998 = system: HCC 2998
U-251 = system: U-251
RXF 393 = system: RXF 393
KM12 = system: KM12
EKVX = system: EKVX
RPMI-8226 = system: RPMI-8226
UACC-257 = system: UACC-257
IGROV-1 = system: IGROV-1
SF-295 = system: SF-295
Hs-578T = system: Hs-578T
MDA-MB-231 = system: MDA-MB-231
T47D = system: T47D
MDA-MB-435 = system: MDA-MB-435
HOP-62 = system: HOP-62
NCI-H522 = system: NCI-H522

Measured: GI50

CC(=O)Nc1ccc(Nc2cc(O)nc(O)n2)cc1
inactive: ACHN > 100 µM | LOX IMVI > 100 µM | OVCAR-8 > 100 µM | UO-31 > 100 µM | SK-MEL-28 > 100 µM | HCC 2998 > 100 µM | U-251 > 100 µM | RXF 393 > 100 µM | KM12 > 100 µM | EKVX > 100 µM | RPMI-8226 > 100 µM | UACC-257 > 100 µM | IGROV-1 > 100 µM | SF-295 > 100 µM | Hs-578T > 100 µM | MDA-MB-231 > 100 µM | T47D 14.1 µM | MDA-MB-435 > 100 µM | HOP-62 > 100 µM

Nc1nc(Cc2ccccc2)nc(Cc2ccccc2)c1-c1ccccc1
inactive: ACHN 29 µM | LOX IMVI 21.3 µM | NCI-H522 16.9 µM | OVCAR-8 28.7 µM | UO-31 27 µM | SK-MEL-28 48.1 µM | HCC 2998 46.6 µM | U-251 17.9 µM | RXF 393 22.6 µM | KM12 28.1 µM | EKVX 11.4 µM | UACC-257 37.3 µM | IGROV-1 26.4 µM | SF-295 25.6 µM | Hs-578T 85.7 µM | MDA-MB-231 18.7 µM | T47D 36.8 µM | MDA-MB-435 22.9 µM | HOP-62 20.7 µM

CC1(C)CC2=NOS3=C2C(=NO3)C1c1ccccn1 (centres undefined)
inactive: ACHN 74.8 µM | LOX IMVI 36.1 µM | NCI-H522 38.5 µM | OVCAR-8 39.5 µM | UO-31 61.7 µM | SK-MEL-28 > 100 µM | HCC 2998 > 100 µM | U-251 > 100 µM | KM12 61.2 µM | EKVX > 100 µM | RPMI-8226 > 100 µM | UACC-257 28.9 µM | IGROV-1 29.6 µM | SF-295 > 100 µM | Hs-578T > 100 µM | MDA-MB-231 > 100 µM | T47D > 100 µM | MDA-MB-435 18.6 µM | HOP-62 > 100 µM

c1ccc(C[N+]23C(CC[C@H]2c2ccccc2)CC[C@H]3c2ccccc2)cc1 (some centres undefined)
inactive: ACHN > 100 µM | LOX IMVI 29.2 µM | NCI-H522 18 µM | OVCAR-8 30.2 µM | UO-31 > 100 µM | SK-MEL-28 34.6 µM | U-251 25.3 µM | RXF 393 18.3 µM | KM12 21.8 µM | EKVX 24 µM | RPMI-8226 2.94 µM | UACC-257 6.24 µM | IGROV-1 21.6 µM | SF-295 35.3 µM | Hs-578T 49.5 µM | MDA-MB-231 34.9 µM | T47D 8.47 µM | MDA-MB-435 18.7 µM | HOP-62 33.5 µM

CCc1n[nH]c(=O)n1/N=C(\C)c1ccccc1
inactive: ACHN > 100 µM | LOX IMVI > 100 µM | NCI-H522 > 100 µM | OVCAR-8 > 100 µM | UO-31 > 100 µM | SK-MEL-28 > 100 µM | U-251 > 100 µM | RXF 393 > 100 µM | KM12 > 100 µM | EKVX 68.5 µM | RPMI-8226 > 100 µM | UACC-257 > 100 µM | IGROV-1 > 100 µM | SF-295 > 100 µM | Hs-578T > 100 µM | MDA-MB-231 > 100 µM | T47D > 100 µM | MDA-MB-435 > 100 µM | HOP-62 > 100 µM

Brc1ccc2nc(-c3cccs3)nc(N3CCN(c4ccccc4)CC3)c2c1
inactive: ACHN > 100 µM | LOX IMVI > 100 µM | NCI-H522 > 100 µM | OVCAR-8 > 100 µM | UO-31 > 100 µM | SK-MEL-28 > 100 µM | HCC 2998 > 100 µM | U-251 > 100 µM | KM12 > 100 µM | EKVX > 100 µM | RPMI-8226 > 100 µM | UACC-257 > 100 µM | IGROV-1 > 100 µM | SF-295 > 100 µM | Hs-578T > 100 µM | MDA-MB-231 > 100 µM | T47D > 100 µM | MDA-MB-435 > 100 µM | HOP-62 > 100 µM

O=C1C2Cc3c(n(C(=O)c4ccccc4)c4ccccc34)CC2C(=O)N1c1ccc(Nc2ccc(N3C(=O)C4Cc5c(n(C(=O)c6ccccc6)c6ccccc56)CC4C3=O)cc2)cc1 (centres undefined)
inactive: ACHN > 100 µM | LOX IMVI > 100 µM | NCI-H522 > 100 µM | OVCAR-8 > 100 µM | UO-31 > 100 µM | SK-MEL-28 > 100 µM | HCC 2998 > 100 µM | U-251 > 100 µM | RXF 393 > 100 µM | KM12 > 100 µM | EKVX > 100 µM | UACC-257 > 100 µM | IGROV-1 > 100 µM | SF-295 > 100 µM | Hs-578T > 100 µM | MDA-MB-231 24.3 µM | T47D > 100 µM | MDA-MB-435 > 100 µM | HOP-62 > 100 µM

CC(C)OC(=O)NNc1cccc(Cl)c1
inactive: ACHN > 100 µM | LOX IMVI 65.8 µM | OVCAR-8 > 100 µM | UO-31 > 100 µM | SK-MEL-28 > 100 µM | HCC 2998 > 100 µM | U-251 > 100 µM | RXF 393 > 100 µM | KM12 > 100 µM | EKVX > 100 µM | RPMI-8226 66.1 µM | UACC-257 > 100 µM | SF-295 > 100 µM | Hs-578T > 100 µM | MDA-MB-231 > 100 µM | T47D > 100 µM | MDA-MB-435 > 100 µM | HOP-62 > 100 µM

CC[C@]12C=CCN3CC[C@@]4(c5cc(N=O)c(OC)cc5N(C)[C@H]4[C@@](O)(C(=O)OC)[C@@H]1OC(C)=O)[C@@H]32
inactive: ACHN 61.7 µM | LOX IMVI 34.1 µM | NCI-H522 18.5 µM | OVCAR-8 > 100 µM | UO-31 > 100 µM | SK-MEL-28 > 100 µM | HCC 2998 > 100 µM | U-251 16.7 µM | RXF 393 44.1 µM | KM12 90.8 µM | EKVX > 100 µM | UACC-257 > 100 µM | IGROV-1 > 100 µM | SF-295 99.5 µM | Hs-578T 73.5 µM | MDA-MB-231 39.4 µM | T47D 35 µM | MDA-MB-435 25.1 µM | HOP-62 61 µM

COc1cccc2cc(C(N)=O)c(=N)oc12
inactive: ACHN 40.3 µM | LOX IMVI 30.7 µM | OVCAR-8 50 µM | SK-MEL-28 46.5 µM | HCC 2998 41.3 µM | U-251 81.5 µM | RXF 393 70.5 µM | KM12 42.6 µM | EKVX 29.2 µM | RPMI-8226 90.2 µM | UACC-257 > 100 µM | IGROV-1 35.5 µM | Hs-578T 31.5 µM | MDA-MB-231 65.2 µM | T47D 37.3 µM | MDA-MB-435 42.3 µM

CO/N=C(/C(=O)OC)c1ccccc1COc1ccccc1C(F)(F)F
inactive: ACHN 83.6 µM | NCI-H522 14.7 µM | OVCAR-8 > 100 µM | UO-31 39.1 µM | SK-MEL-28 37.8 µM | HCC 2998 27.9 µM | U-251 31.6 µM | RXF 393 > 100 µM | KM12 30.2 µM | EKVX 11.3 µM | RPMI-8226 14.4 µM | UACC-257 16 µM | IGROV-1 20.7 µM | SF-295 10.7 µM | Hs-578T 47.3 µM | MDA-MB-231 80.9 µM | T47D 25.2 µM | MDA-MB-435 24.4 µM | HOP-62 63.8 µM

O=C(Nc1ccccc1)c1cc(S(=O)(=O)N2CCNNC2=O)c(S)cc1Cl
inactive: ACHN > 100 µM | LOX IMVI 43.7 µM | NCI-H522 24.7 µM | OVCAR-8 32.3 µM | UO-31 > 100 µM | SK-MEL-28 > 100 µM | HCC 2998 > 100 µM | U-251 > 100 µM | RXF 393 21.3 µM | KM12 > 100 µM | EKVX > 100 µM | RPMI-8226 33.9 µM | UACC-257 > 100 µM | IGROV-1 > 100 µM | SF-295 > 100 µM | Hs-578T > 100 µM | MDA-MB-231 39 µM | T47D 44.5 µM | MDA-MB-435 > 100 µM

C=C1C(NC)CCC23CC24CCC2(C)C(C(C)=O)C(O)CC2(C)C4CCC13 (centres undefined)
inactive: ACHN > 100 µM | LOX IMVI 63.7 µM | NCI-H522 84.9 µM | OVCAR-8 > 100 µM | UO-31 > 100 µM | SK-MEL-28 > 100 µM | HCC 2998 > 100 µM | U-251 > 100 µM | KM12 56.1 µM | EKVX > 100 µM | RPMI-8226 45 µM | UACC-257 > 100 µM | IGROV-1 > 100 µM | SF-295 28.4 µM | Hs-578T > 100 µM | MDA-MB-231 > 100 µM | T47D > 100 µM | MDA-MB-435 > 100 µM

Nc1cc(CO)cc(Nc2c3ccccc3nc3ccccc23)c1
inactive: ACHN 17.2 µM | LOX IMVI 16.7 µM | NCI-H522 6.59 µM | OVCAR-8 15.9 µM | UO-31 18.4 µM | SK-MEL-28 17.8 µM | U-251 15.1 µM | RXF 393 16.8 µM | KM12 16.3 µM | EKVX 16.8 µM | RPMI-8226 29.8 µM | UACC-257 15.1 µM | IGROV-1 16.9 µM | SF-295 10.9 µM | Hs-578T 18.3 µM | MDA-MB-231 12.1 µM | T47D 18.4 µM | MDA-MB-435 17 µM | HOP-62 14.7 µM

COc1ccc2[nH]c3c(c2c1)CCn1c-3nc2ccccc2c1=O
inactive: ACHN > 25 µM | NCI-H522 > 25 µM | OVCAR-8 > 25 µM | UO-31 > 25 µM | SK-MEL-28 > 25 µM | HCC 2998 > 25 µM | U-251 > 25 µM | KM12 > 25 µM | EKVX > 25 µM | RPMI-8226 > 25 µM | UACC-257 > 25 µM | IGROV-1 > 25 µM | SF-295 > 25 µM | Hs-578T > 25 µM | MDA-MB-231 > 25 µM | T47D > 25 µM | MDA-MB-435 > 25 µM | HOP-62 > 25 µM
